The values that follow come from patent US11786530B2, “Method against severe acute respiratory syndrome coronavirus 2 infection” (National Yang Ming Chiao Tung University, priority 2021, dated 2023).

The subject of test [1] is SARS-CoV-2 WA strain. Kind of test: Inhibition of SARS-CoV-2 in infected Vero E6 cells (MTT, OD590) with ZIP delta synergy score. The format is cell-based. To be noted: Severe acute respiratory syndrome coronavirus 2, Vero C1008, 72 h, read-out: Inhibition rate.
The subject of test [2] is SARS-CoV-2. The conditions noted are these: model cell lines; cited from earlier work.

One may read the inhibition as the change of the read-out against control, counted positive when it falls. For the compound `CCC(CC)COC(=O)[C@H](C)N[P@](=O)(OC[C@H]1O[C@@](C#N)(c2ccc3c(N)ncnn23)[C@H](O)[C@@H]1O)Oc1ccccc1` [remdesivir], the inhibition at 3 µM in test [1] is 4.57%.

For `CN(Cc1cnc2nc(N)nc(N)c2n1)c1ccc(C(=O)N[C@@H](CCC(=O)O)C(=O)O)cc1` [MTX, methotrexate], the inhibition at 0.2 µM in test [1] (Comparative group 2: MTX 0.2 μM, remdesivir 0 μM, Vero E6 cells, 3 days) worked out at 11.7%. Also, the “inhibition of SARS-CoV-2 replication” value in test [2] is given as “dose-dependent, potent inhibition”.
